Experimental data published in patent US12077503B2, “Substituted cyclic amides and their use as herbicides” (FMC CORPORATION, priority 2015, dated 2024).

Tests used:
Type in all cases: in vivo
Kochia (Kochia scoparia) [1] = assay: Test A preemergence; details: Bassia scoparia, pre-emergence, 240 h, preemergence, 0 to 100 scale where 0 is no effect and 100 is complete control, read-out: Kochia plant response rating; for pest or weed control at 125 g/ha: 125 g ai/ha, approx. 10 d; for pest or weed control at 500 g/ha: 500 g ai/ha
How it was run: (§1)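 Greenhouse, ~10 d after spray; visual injury vs untreated controls, 0 = no effect, 100 = complete control. Preemergence: directed soil spray over planted seeds. Postemergence: plants 2–10 cm, 1–2 leaf stage. Loam/sand blend. Compound in non-phytotoxic solvent with surfactant.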

[2] = test system: barnyardgrass (Echinochloa crus-galli); assay: Test A preemergence; details: Echinochloa crus-galli, pre-emergence, 240 h, preemergence, read-out: Barnyardgrass plant response rating; for pest or weed control at 125 g/ha: 125 g ai/ha, 0 to 100 scale where 0 is no effect and 100 is complete control, approx. 10 d; for pest or weed control at 500 g/ha: 500 g ai/ha, visual injury rating about 10 d after treatment, 0 to 100 scale (0 no effect, 100 complete control)
How it was run: as §1

[3] = test system: giant foxtail (Setaria faberii); assay: Test A preemergence; details: Setaria faberi, pre-emergence, 240 h, preemergence, 0 to 100 scale where 0 is no effect and 100 is complete control, read-out: Foxtail, Giant plant response rating; for pest or weed control at 125 g/ha: 125 g ai/ha, approx. 10 d; for pest or weed control at 500 g/ha: 500 g ai/ha
How it was run: as §1

[4] = test system: pigweed (Amaranthus retroflexus); assay: Test A preemergence; details: Amaranthus retroflexus, pre-emergence, 240 h, preemergence, 0 to 100 scale where 0 is no effect and 100 is complete control, read-out: Pigweed plant response rating; for pest or weed control at 125 g/ha: 125 g ai/ha, approx. 10 d; for pest or weed control at 500 g/ha: 500 g ai/ha
[5] = test system: ragweed (common ragweed, Ambrosia elatior); assay: Test A preemergence; details: Ambrosia artemisiifolia, pre-emergence, 240 h, preemergence, 0 to 100 scale where 0 is no effect and 100 is complete control, read-out: Ragweed plant response rating; for pest or weed control at 125 g/ha: 125 g ai/ha, approx. 10 d; for pest or weed control at 500 g/ha: 500 g ai/ha
How it was run: as §1

[6] = test system: ryegrass, Italian (Italian ryegrass, Lolium multiflorum); assay: Test A preemergence; details: Lolium multiflorum, pre-emergence, 240 h, preemergence, 0 to 100 scale where 0 is no effect and 100 is complete control, read-out: Ryegrass, Italian plant response rating; for pest or weed control at 125 g/ha: 125 g ai/ha, approx. 10 d; for pest or weed control at 500 g/ha: 500 g ai/ha
How it was run: as §1

[7] = test system: Galium (catchweed bedstraw, Galium aparine); assay: Test A postemergence; details: Galium, post-emergence, 240 h, postemergence, read-out: Galium plant response rating; for pest or weed control at 125 g/ha: 125 g ai/ha, visual injury on 0 to 100 scale (0 no effect, 100 complete control), approx. 10 d; for pest or weed control at 500 g/ha: 500 g ai/ha, 0 to 100 scale, 0 is no effect, 100 is complete control
How it was run: as §1

Kochia (Kochia scoparia) [8] = assay: Test A postemergence; details: Bassia scoparia, post-emergence, 240 h, postemergence, read-out: Kochia plant response rating; for pest or weed control at 125 g/ha: 125 g ai/ha, visual injury on 0 to 100 scale (0 no effect, 100 complete control), approx. 10 d; for pest or weed control at 500 g/ha: 500 g ai/ha, 0 to 100 scale, 0 is no effect, 100 is complete control
How it was run: as §1

[9] = test system: barnyardgrass (Echinochloa crus-galli); assay: Test A postemergence; details: Echinochloa crus-galli, post-emergence, 240 h, postemergence, read-out: Barnyardgrass plant response rating; for pest or weed control at 125 g/ha: 125 g ai/ha, visual injury on 0 to 100 scale (0 no effect, 100 complete control), approx. 10 d; for pest or weed control at 500 g/ha: 500 g ai/ha, 0 to 100 scale, 0 is no effect, 100 is complete control
How it was run: as §1

[10] = test system: blackgrass (Alopecurus myosuroides); assay: Test A postemergence; details: Alopecurus myosuroides, post-emergence, 240 h, postemergence, read-out: Blackgrass plant response rating; for pest or weed control at 125 g/ha: 125 g ai/ha, visual injury on 0 to 100 scale (0 no effect, 100 complete control), approx. 10 d; for pest or weed control at 500 g/ha: 500 g ai/ha, 0 to 100 scale, 0 is no effect, 100 is complete control
How it was run: as §1

corn (Zea mays) = assay: Test A postemergence; details: Zea mays, post-emergence, 240 h, postemergence, read-out: Corn plant response rating; for plant injury at 125 g/ha: 125 g ai/ha, visual injury on 0 to 100 scale (0 no effect, 100 complete control), approx. 10 d; for plant injury at 500 g/ha: 500 g ai/ha, 0 to 100 scale, 0 is no effect, 100 is complete control
How it was run: as §1

[11] = test system: giant foxtail (Setaria faberii); assay: Test A postemergence; details: Setaria faberi, post-emergence, 240 h, postemergence, read-out: Foxtail, Giant plant response rating; for pest or weed control at 125 g/ha: 125 g ai/ha, visual injury on 0 to 100 scale (0 no effect, 100 complete control), approx. 10 d; for pest or weed control at 500 g/ha: 500 g ai/ha, 0 to 100 scale, 0 is no effect, 100 is complete control
How it was run: as §1

[12] = test system: pigweed (Amaranthus retroflexus); assay: Test A postemergence; details: Amaranthus retroflexus, post-emergence, 240 h, postemergence, read-out: Pigweed plant response rating; for pest or weed control at 125 g/ha: 125 g ai/ha, visual injury on 0 to 100 scale (0 no effect, 100 complete control), approx. 10 d; for pest or weed control at 500 g/ha: 500 g ai/ha, 0 to 100 scale, 0 is no effect, 100 is complete control
How it was run: as §1

[13] = test system: ragweed (common ragweed, Ambrosia elatior); assay: Test A postemergence; details: Ambrosia artemisiifolia, post-emergence, 240 h, postemergence, read-out: Ragweed plant response rating; for pest or weed control at 125 g/ha: 125 g ai/ha, visual injury on 0 to 100 scale (0 no effect, 100 complete control), approx. 10 d; for pest or weed control at 500 g/ha: 500 g ai/ha, 0 to 100 scale, 0 is no effect, 100 is complete control
How it was run: as §1

[14] = test system: ryegrass, Italian (Italian ryegrass, Lolium multiflorum); assay: Test A postemergence; details: Lolium multiflorum, post-emergence, 240 h, postemergence, read-out: Ryegrass, Italian plant response rating; for pest or weed control at 125 g/ha: 125 g ai/ha, visual injury on 0 to 100 scale (0 no effect, 100 complete control), approx. 10 d; for pest or weed control at 500 g/ha: 500 g ai/ha, 0 to 100 scale, 0 is no effect, 100 is complete control
How it was run: as §1

[15] = test system: wheat (Triticum aestivum); assay: Test A postemergence; details: Triticum aestivum, post-emergence, 240 h, postemergence, read-out: Wheat plant response rating; for plant injury at 125 g/ha: 125 g ai/ha, visual injury on 0 to 100 scale (0 no effect, 100 complete control), approx. 10 d; for plant injury at 500 g/ha: 500 g ai/ha, 0 to 100 scale, 0 is no effect, 100 is complete control
How it was run: as §1

SMILES: CN1C[C@H](c2cscn2)[C@@H](C(=O)Nc2cccc(F)c2F)C1=O [Compound 1113]
- pest or weed control at 125 g/ha (Kochia (Kochia scoparia) [1]): 0%
- pest or weed control at 500 g/ha (Kochia (Kochia scoparia) [1]): 0%
- pest or weed control at 125 g/ha [2]: 0%
- pest or weed control at 500 g/ha [2]: 0%
- pest or weed control at 125 g/ha [3]: 0%
- pest or weed control at 500 g/ha [3]: 0%
- pest or weed control at 125 g/ha [4]: 0%
- pest or weed control at 500 g/ha [4]: 0%
- pest or weed control at 125 g/ha [5]: 0%
- pest or weed control at 500 g/ha [5]: 0%
- pest or weed control at 125 g/ha [6]: 0%
- pest or weed control at 500 g/ha [6]: 0%
- pest or weed control at 125 g/ha [7]: 0%
- pest or weed control at 500 g/ha [7]: 0%
- pest or weed control at 125 g/ha (Kochia (Kochia scoparia) [8]): 0%
- pest or weed control at 500 g/ha (Kochia (Kochia scoparia) [8]): 0%
- pest or weed control at 125 g/ha [9]: 0%
- pest or weed control at 500 g/ha [9]: 0%
- pest or weed control at 125 g/ha [10]: 0%
- pest or weed control at 500 g/ha [10]: 0%
- plant injury at 125 g/ha (corn (Zea mays)): 0%
- plant injury at 500 g/ha (corn (Zea mays)): 0%
- pest or weed control at 125 g/ha [11]: 0%
- pest or weed control at 500 g/ha [11]: 0%
- pest or weed control at 125 g/ha [12]: 0%
- pest or weed control at 500 g/ha [12]: 0%
- pest or weed control at 125 g/ha [13]: 0%
- pest or weed control at 500 g/ha [13]: 0%
- pest or weed control at 125 g/ha [14]: 0%
- pest or weed control at 500 g/ha [14]: 0%
- plant injury at 125 g/ha [15]: 0%
- plant injury at 500 g/ha [15]: 0%

SMILES: CN1C[C@H](c2csc3ccccc23)[C@@H](C(=O)Nc2cccc(F)c2F)C1=O [Compound 1115]
- pest or weed control at 125 g/ha (Kochia (Kochia scoparia) [1]): 70%
- pest or weed control at 500 g/ha (Kochia (Kochia scoparia) [1]): 70%
- pest or weed control at 125 g/ha [2]: 90%
- pest or weed control at 500 g/ha [2]: 90%
- pest or weed control at 125 g/ha [3]: 90%
- pest or weed control at 500 g/ha [3]: 90%
- pest or weed control at 125 g/ha [4]: 0%
- pest or weed control at 500 g/ha [4]: 40%
- pest or weed control at 125 g/ha [5]: 0%
- pest or weed control at 500 g/ha [5]: 20%
- pest or weed control at 125 g/ha [6]: 50%
- pest or weed control at 500 g/ha [6]: 60%
- pest or weed control at 125 g/ha [7]: 0%
- pest or weed control at 500 g/ha [7]: 30%
- pest or weed control at 125 g/ha (Kochia (Kochia scoparia) [8]): 20%
- pest or weed control at 500 g/ha (Kochia (Kochia scoparia) [8]): 40%
- pest or weed control at 125 g/ha [9]: 80%
- pest or weed control at 500 g/ha [9]: 90%
- pest or weed control at 125 g/ha [10]: 30%
- pest or weed control at 500 g/ha [10]: 40%
- plant injury at 125 g/ha (corn (Zea mays)): 40%
- plant injury at 500 g/ha (corn (Zea mays)): 50%
- pest or weed control at 125 g/ha [11]: 70%
- pest or weed control at 500 g/ha [11]: 90%
- pest or weed control at 125 g/ha [12]: 20%
- pest or weed control at 500 g/ha [12]: 20%
- pest or weed control at 125 g/ha [13]: 0%
- pest or weed control at 500 g/ha [13]: 30%
- pest or weed control at 125 g/ha [14]: 20%
- pest or weed control at 500 g/ha [14]: 40%
- plant injury at 125 g/ha [15]: 20%
- plant injury at 500 g/ha [15]: 30%

SMILES: O=C1NC[C@H](c2csc(C(F)F)c2)[C@H]1C(=O)Nc1ccccc1F [Compound 1118]
- pest or weed control at 125 g/ha (Kochia (Kochia scoparia) [1]): 0%
- pest or weed control at 500 g/ha (Kochia (Kochia scoparia) [1]): 70%
- pest or weed control at 125 g/ha [2]: 80%
- pest or weed control at 500 g/ha [2]: 90%
- pest or weed control at 125 g/ha [3]: 60%
- pest or weed control at 500 g/ha [3]: 90%
- pest or weed control at 125 g/ha [4]: 0%
- pest or weed control at 500 g/ha [4]: 0%
- pest or weed control at 125 g/ha [5]: 20%
- pest or weed control at 500 g/ha [5]: 60%
- pest or weed control at 125 g/ha [6]: 40%
- pest or weed control at 500 g/ha [6]: 50%
- pest or weed control at 125 g/ha [7]: 50%
- pest or weed control at 500 g/ha [7]: 60%
- pest or weed control at 125 g/ha (Kochia (Kochia scoparia) [8]): 0%
- pest or weed control at 500 g/ha (Kochia (Kochia scoparia) [8]): 30%
- pest or weed control at 125 g/ha [9]: 80%
- pest or weed control at 500 g/ha [9]: 90%
- pest or weed control at 125 g/ha [10]: 20%
- pest or weed control at 500 g/ha [10]: 60%
- plant injury at 125 g/ha (corn (Zea mays)): 0%
- plant injury at 500 g/ha (corn (Zea mays)): 20%
- pest or weed control at 125 g/ha [11]: 0%
- pest or weed control at 500 g/ha [11]: 50%
- pest or weed control at 125 g/ha [12]: 0%
- pest or weed control at 500 g/ha [12]: 20%
- pest or weed control at 125 g/ha [13]: 0%
- pest or weed control at 500 g/ha [13]: 20%
- pest or weed control at 125 g/ha [14]: 20%
- pest or weed control at 500 g/ha [14]: 50%
- plant injury at 125 g/ha [15]: 20%
- plant injury at 500 g/ha [15]: 20%
